Assays:
Assay in all cases: In vitro antifungal activity, microbroth dilution MIC
Type in all cases: cell-based
Conditions in all cases: RPMI-1640, 35° C., 4 to 48 hours, no growth observed
[1] = system: Cryptococcus neoformans B. 42419
Summary of the method: (§1)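 Broth microdilution adapted from NCCLS M27, in RPMI-1640 with 0.165 M MOPS, pH 7.0. Yeast or mould inoculum at 2×10^3 CFU/ml was mixed 1:1 with DMSO-derived compound solutions (200 to 0.10 μg/ml before mixing) and incubated at 35 °C for 4 to 48 h. MIC was the concentration showing no growth.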

[2] = system: Torulopsis glabrata B. 16205
Summary of the method: as §1

[3] = system: Candida albicans IFO. 1385
Summary of the method: as §1

[4] = system: Trichophyton mentagrophytes A. 9129
Summary of the method: as §1

[5] = system: Candida tropicalis A. 13803
Summary of the method: as §1

[6] = system: Cryptococcus neoformans IFM. 40092
Summary of the method: as §1

Candida albicans C1-2 = system: Candida albicans C1-2
Summary of the method: as §1

[7] = system: Candida parapsitosis A. 7330
Summary of the method: as §1

[8] = system: Aspergillus niger A. 16404
Summary of the method: as §1

[9] = system: Aspergillus furnigatus B. 19119
Summary of the method: as §1

[10] = system: Trichophyton mentagrophytes B. 32663
Summary of the method: as §1

[11] = system: Candida albicans A. 10231
Summary of the method: as §1

[12] = system: Cryptococcus neoformans A. 34144
Summary of the method: as §1

Candida krusei K. 11655 = system: Candida krusei K. 11655
Summary of the method: as §1

[13] = system: Candida pseudotropicalis K. 11658
Summary of the method: as §1

SMILES | Minimal inhibitory concentration(MIC), Cry. neoformans B. 42419 [1] [µg/mL] | Minimal inhibitory concentration(MIC), T. glabrata B. 16205 [2] [µg/mL] | Minimal inhibitory concentration(MIC), C. albicans IFO. 1385 [3] [µg/mL] | Minimal inhibitory concentration(MIC), T. mentagrophytes A. 9129 [4] [µg/mL] | Minimal inhibitory concentration(MIC), C. tropicalis A. 13803 [5] [µg/mL] | Minimal inhibitory concentration(MIC), Cry. neoformans IFM. 40092 [6] [µg/mL] | Minimal inhibitory concentration(MIC), C. albicans C1-2 (Candida albicans C1-2) [µg/mL] | Minimal inhibitory concentration(MIC), C. parapsitosis A. 7330 [7] [µg/mL] | Minimal inhibitory concentration(MIC), A. niger A. 16404 [8] [µg/mL] | Minimal inhibitory concentration(MIC), A furnigatus B. 19119 [9] [µg/mL] | Minimal inhibitory concentration(MIC), T. mentagrophytes B. 32663 [10] [µg/mL] | Minimal inhibitory concentration(MIC), C. albicans A. 10231 [11] [µg/mL] | Minimal inhibitory concentration(MIC), Cry. neoformans A. 34144 [12] [µg/mL] | Minimal inhibitory concentration(MIC), C. krusei K. 11655 (Candida krusei K. 11655) [µg/mL] | Minimal inhibitory concentration(MIC), C. pseudotropicalis K. 11658 [13] [µg/mL]
FC(Oc1ccc(OCC2COC(Cn3ccnc3)(c3ccc(Cl)cc3Cl)O2)cc1)=C(c1cccc(Cl)c1)C(F)(F)F (mixture of isomers) [Ex. 101] | 3.13 | 25.0 | 3.13 | 25.0 | >100 | 0.78 | 50.0 | >100 | >100 | 50.0 | 12.5 | 25.0 | 3.13 | >100 | >100
FC(Oc1ccc(OCC2COC(Cn3ccnc3)(c3ccc(Cl)cc3Cl)O2)cc1)=C(c1ccc(Cl)cc1)C(F)(F)F (mixture of isomers) [Ex. 102] | >100 | 100 | 6.25 | 25.0 | >100 | 3.13 | 100 | >100 | >100 | 100 | 12.5 | 100 | 12.5 | >100 | >100
FC(Oc1ccc(OCC2COC(Cn3ccnc3)(c3ccc(Cl)cc3Cl)O2)cc1)=C(c1cccc(F)c1)C(F)(F)F (mixture of isomers) [Ex. 103] | 3.13 | 50.0 | 3.13 | 12.5 | >100 | 0.78 | 50.0 | >100 | >100 | 100 | 6.25 | 50.0 | 3.13 | >100 | >100
FC(Oc1ccc(OCC2COC(Cn3ccnc3)(c3ccc(Cl)cc3Cl)O2)cc1)=C(c1cc(Cl)cc(Cl)c1)C(F)(F)F (mixture of isomers) [Ex. 104] | 3.13 | 100 | 3.13 | 50.0 | >100 | 0.78 | >100 | >100 | >100 | >100 | 25.0 | 100 | 3.13 | >100 | >100
COc1ccc(C=C(F)Oc2ccc(OCC3COC(Cn4ccnc4)(c4ccc(F)cc4F)O3)cc2)cc1 (mixture of isomers) [Ex. 105] | 12.5 | >100 | 6.25 | 100 | >100 | 1.56 | 100 | >100 | >100 | >100 | 100 | 50.0 | 6.25 | >100 | >100
FC(Oc1ccc(OCC2COC(Cn3ccnc3)(c3ccc(F)cc3F)O2)cc1)=C(c1ccccc1)C(F)(F)F (mixture of isomers) [Ex. 106] | 1.56 | 50.0 | 1.56 | 3.13 | >100 | 0.39 | 50.0 | 3.13 | >100 | >100 | 1.56 | 100 | 1.56 | 3.13 | 3.13
Cc1cccc(C(=C(F)Oc2ccc(OCC3COC(Cn4ccnc4)(c4ccc(F)cc4F)O3)cc2)C(F)(F)F)c1 (mixture of isomers) [Ex. 107] | 3.13 | 100 | 3.13 | 12.5 | >100 | 0.39 | 50.0 | >100 | >100 | >100 | 3.13 | 100 | 1.56 | >100 | 100
CCc1ccc(C(=C(F)Oc2ccc(OCC3COC(Cn4ccnc4)(c4ccc(F)cc4F)O3)cc2)C(F)(F)F)cc1 (mixture of isomers) [Ex. 108] | 3.13 | >100 | 6.25 | 50.0 | >100 | 0.78 | 100 | >100 | >100 | >100 | 12.5 | >100 | 3.13 | >100 | >100
CC(C)(C)c1ccc(C(=C(F)Oc2ccc(OCC3COC(Cn4ccnc4)(c4ccc(F)cc4F)O3)cc2)C(F)(F)F)cc1 (mixture of isomers) [Ex. 109] | 3.13 | 100 | 3.13 | 6.25 | >100 | 0.39 | 50.0 | >100 | >100 | >100 | 3.13 | 100 | 1.56 | >100 | >100

— patent US6376497B1, “Antifungal azole derivatives having a fluorinated vinyl group and process for preparing same” (Korea Research Institute of Chemical Technology, priority 1999, dated 2002)
